In data set [1] the test system is mitochondria of 4T1 cells. Nature of the data set: Cell uptake and organelle localization (CLSM). Format: cell-based, Mouse. The conditions noted are these: 24 h. An excerpt:
In order to evaluate the positive effect of the conjugation of rhein and DCA on anti-cancer aspect, cellular uptake of Rhein-DCA conjugate in 4T1 cells was first examined by confocal laser scanning microscope (CLSM). Based on the fluorescence properties of Rhein-DCA conjugate, green fluorescence signal indicated its distribution within the cells. […] The green fluorescence of rhein was highly overlapped with the red fluorescence of mitochondria (Mito tracker red) and merged into yellow fluorescence in rhein and Rhein-DCA groups.
4T1 cells were seeded in confocal dishes at a density of 10 × 10^4 cells per dish and cultured in the incubator for 24 h. And the cells were further treated with Rhein-DCA conjugate at a concentration of 6.25 μM for 0, 2, 6, 12 or 24 h, respectively. Thereafter, the cells were washed twice with PBS and stained with Hoechst 33342 (10 μg/mL) for 15 min in the dark at room temperature, followed by another two washes with PBS. Finally, the fluorescence intensity of cells was monitored with confocal microscope with excitation wavelengths (Ex) of 488 nm, emission wavelengths (Em) of 525 ± 25 nm, and Ex of 405 nm, Em of 447 ± 30 nm, respectively. […]

The nature of data set [2]: Tissue distribution after oral administration. Format: in vivo. Particulars: 4T1-bearing Balb/c mice, oral 20 mg/kg. As to the method: 4T1-bearing Balb/c mice were orally administered with Rhein-DCA (20 mg/kg), major organs (heart, liver, spleen, lung, kidney) and tumor tissues were harvested at 2, 6, and 24 h after administration. […] The Rhein-DCA conjugate could be absorbed rapidly and broadly distributed in major organs tissue after administration.
4T1-bearing Balb/c mice were orally administered with Rhein-DCA (20 mg/kg), major organs (heart, liver, spleen, lung, kidney) and tumor tissues were harvested and weighed at 2, 6, and 24 h after administration. Each organ was homogenized with sonication in ice bath (power 400 W, the duration of sonication is 3 s, the interval duration of 3 s, total sonication time of 20 min). Centrifuge the homogenate at 13000 G for 10 min at 4°C to obtain the supernatant for HPLC.

Another data set relates to mPTP in 4T1 cells. Briefly: Mitochondrial permeability transition pore opening assay (Calcein AM). Format: cell-based, Mouse. Particulars: 6.25 μM, 24 h. An excerpt: On the other hand, rhein could also disturb mitochondria, the camp of OXPHOS, to further prevent cancer cells from obtaining ATP by inducing pathological opening of mPTP [30]. We first detected mPTP on 4T1 cancer cells treated with indicated drugs according to the mPTP assay kit. The green fluorescence of Calcein AM in mitochondria would vanish when the quencher entered mitochondria through the opened mPTP channel. […] The sustained opening of mPTP along with the loss of Δψm. Thus, we further examined the Δψm of 4T1 cancer cells with JC-1 fluorescence dyes and tetramethylrhodamine, ethyl ester (TMRE) probe. The JC-1 dyes underwent a transition from aggregated red fluorescence to monomeric green fluorescence with mitochondrial depolarization in cells, and the increase of green/red fluorescence intensity ratio of JC-1 dyes indicated mitochondrial depolarization.
The opening status of the mPTP in 4T1 cells were tested with fluorescent probe Calcein AM. Briefly, 4T1 cells were seeded into 6-wells plates at a density of 10 × 10^4 cells per well and treated with various drugs at 6.25 μM for 24 h. After being washed twice with PBS, the cells were stained with Calcein AM staining solution (1 ×) and CoCl2 fluorescence quenching solution (1 ×) for 45 min at 37 °C in the dark. Next, they were further cultured with fresh medium at 37 °C for another 30 min in the dark. […]

In the next data set the test system is 4T1 cells. Nature of the data set: Intracellular stability by HPLC. Format: in vitro ADME, Mouse. As to the method: (§1) Stability of drugs is vital indexes for anticancer application. The stability of Rhein-DCA conjugate in vitro was performed by dispersing it in 2.5% dimethyl sulfoxide (DMSO)-PBS at room temperature for 0, 2, 6 and 12 h. […] Furthermore, we also quantitatively analyzed the intracellular stability of Rhein-DCA using high-performance liquid chromatography (HPLC). After 4 h of uptake, the intracellular concentration of Rhein-DCA was 0.095 μg/10^6 cells within 4T1 cells.
(§2) UV-Vis spectra were used to investigate the stability of Rhein-DCA conjugate. The Rhein-DCA was dispersed in 2.5% DMSO-PBS at room temperature, and the absorption spectrum was monitored at 0, 2, 6 and 12 h. High performance liquid chromatography (HPLC) was used to investigate the intracellular stability of Rhein-DCA conjugate. 4T1 cells were seeded in cell culture dish (diameter of 10 cm) at a density of 2 × 10^6 cells per dish and cultured in the incubator for 24 h. Then the cells were further treated with Rhein-DCA conjugate at a concentration of 11 μg/mL for 4 h. After removing media and washing the cells three times with PBS to remove the residual Rhein-DCA, the cells were incubated for another 2 h. Then, the cells were collected and washed twice with PBS. The cells were suspended in 1 mL methanol to obtain cell lysates by three freeze-thaw. Then the supernatant was collected after centrifugation at 13000 G for 10 min for HPLC analysis. A C18 column was used with methanol / 0.1% H₃PO₄ (83:17) as the mobile phase, flow rate 1.0 mL/min, fluorescence detector with an excitation wavelength of 443 nm and an emission wavelength of 530 nm.

Data set [3] is described as follows: Stability in 2.5% DMSO-PBS by UV-Vis absorption. It counts as physicochemical. The conditions noted are these: room temperature, 0-12 h. As to the method: as §1
as §2, with “Then, the cells were collected and washed twice with PBS. The cells were suspended in 1 mL methanol to obtain cell lysates by three freeze-thaw. Then the supernatant was collected after centrifugation at 13000 G for 10 min for HPLC analysis.” left out

For the next data set, the system named is 4T1 tumor metastasis. Briefly: Lung and liver metastasis (images, H&E). Format: in vivo, Balb/c mice. The conditions noted are these: 20 mg/kg oral, 24 days. As to the method:
Correspondingly, the lung and liver tissues, which are the most common sites for primary tumor metastasis, were obtained and imaged, and then subjected to H&E staining for histopathological examination. […] The major organs (heart, liver, spleen, lung and kidney) were also excised for photographing and H&E staining. The blood biochemistry indexes, including ALT, AST, CREA and UREA were tested.

Take `O=C(OCCOC(=O)C(Cl)Cl)c1cc(O)c2c(c1)C(=O)c1cccc(O)c1C2=O` [Rhein-DCA]: the “co-localization with lysosomes (Lyso tracker red) and endoplasmic reticulum (ER tracker red)” value in data set [1] is “almost did not co-localize”. Besides, in data set [2], the intra-tumoral retention result is on record as “remaining quantifiable up to 24 h” and the “systemic clearance from major organs by 24 h” value is given as “extremely completed”. For the same molecule, in data set [2] (mouse, tumor, sampled at 2, 6, 24 h, read-out: time of peak concentration in tumors), the Tmax came to 6 h. For the same molecule, in the data set on mPTP in 4T1 cells, the “mPTP opening (Calcein AM green fluorescence)” value is recorded as “faintest green fluorescence”. The “intracellular concentration after 4 h of uptake” value in the data set with 4T1 cells (11 μg/mL, 4 h) is listed as 0.095 μg/10^6 cells. The “residual intracellular concentration after removing drug and incubating another 2 h” value with 4T1 cells (4 h uptake then 2 h drug-free) amounted to 0.080 μg/10^6 cells. In the data set on 4T1 cells (within 2 h), the intracellular degradation rate entry is “approximately 15.7%”. In addition, the “stability (UV-Vis absorption spectra)” value in data set [3] was “relatively stable”. Besides, in the data set with 4T1 tumor metastasis, the “metastatic lesions in lungs and livers” value was “significantly decreased the number and size of metastatic lesions”.

Source of the values: article PMC12036875, “Mitochondria-targeting natural product rhein conjugated with dichloroacetate as the dual inhibitor of glycolysis and oxidative phosphorylation to off energize cancer cells and induce ROS storm” (Theranostics, 2025).
